Measurements: US20220204497A1, “NOVEL COMPOUND HAVING ANTICANCER ACTIVITY, AND METHOD FOR PRODUCING SAME” (MEDICINAL BIOCONVERGENCE RESEARCH CENTER, priority 2019, published 2022)

The compounds below were run on A549 cells (assay: Cell viability by MTT method in A549 cells). Settings: 72 hours treatment.
Format: cell-based
Set-up: concentration or dose not given beside the values
`Cc1ccc(S(=O)(=O)N[C@H](Cn2c(=O)c(=O)[nH]c3ccccc32)C(=O)Nc2ccc(N3CCOCC3)cc2)cc1` [Compound 139, (R)-3-(2,3-dioxo-3,4-dihydroquinoxalin-1(2H)-yl)-2-(4-methylphenylsulfonamido)-N-(4-morpholinophenyl)propanamide] was tested, and the “Cell Viability (% inhibition) (A549)” value was 9.99 ± 0.24%.
In the case of `Cc1ccc(S(=O)(=O)N[C@@H](CCCCNC(=O)c2ccc(C(F)(F)F)cn2)C(=O)Nc2ccc(N3CCOCC3)cc2)cc1` [Compound 140, (S)—N-(5-(4-methylphenylsulfonamido)-6-(4-morpholinophenylamino)-6-oxohexyl)-5-(trifluoromethyl)picolinamide], the “Cell Viability (% inhibition) (A549)” value is reported as 86.68 ± 1.25%.
`Cc1ccc(S(=O)(=O)N[C@@H](CCC(=O)OCc2ccccc2)C(=O)Nc2ccc(N3CCOCC3)cc2)cc1` [Compound 141, (S)-Benzyl 4-(4-methylphenylsulfonamido)-5-(4-morpholinophenylamino)-5-oxopentanoate] was tested, and the “Cell Viability (% inhibition) (A549)” value was 40.15 ± 6.15%.
In the case of `Cc1ccc(S(=O)(=O)N[C@@H](CC(=O)OCc2ccccc2)C(=O)Nc2ccc(N3CCOCC3)cc2)cc1` [Compound 142, (S)-Benzyl 3-(4-methylphenylsulfonamido)-4-(4-morpholinophenylamino)-4-oxobutanoate], the “Cell Viability (% inhibition) (A549)” value is reported as 15.9 ± 4.84%.
`CC(C)C[C@H](NS(=O)(=O)c1ccc(C(=O)O)cc1)C(=O)N1CCOCCOCCOCC1` [Compound 157, (S)-4-(N-(4-methyl-1-oxo-1-(1,4,7-trioxa-10-azacyclododecan-10-yl)pentan-2-yl)sulfamoyl)benzoic acid] was tested, and the “Cell Viability (% inhibition) (A549)” value was 64.40 ± 2.96%.
In the case of `Cc1ccc(S(=O)(=O)N[C@@H](Cc2c[nH]c3ccccc23)C(=O)NNC(=O)c2ccc(N3CCOCC3)cc2)cc1` [Compound 163, (S)—N-(3-(1H-indol-3-yl)-1-(2-(4-morpholinobenzoyl)hydrazinyl)-1-oxopropan-2-yl)-4-methylbenzenesulfonamide], the “Cell Viability (% inhibition) (A549)” value is reported as 18.63 ± 9.48%.
In the case of `Cc1ccc(S(=O)(=O)N[C@@H](Cc2c[nH]c3ccccc23)C(=O)Nc2nc(-c3ccc(N4CCOCC4)cc3)cs2)cc1` [Compound 164, (S)-3-(1-indol-3-yl)-2-(4-methylphenylsulfonamido)-N-(4-(4-morpholinophenyl)thiazol-2-yl)propanamide], the “Cell Viability (% inhibition) (A549)” value is reported as 88.05 ± 0.8%.
For `COC(=O)c1ccc(-c2csc(NC(=O)[C@H](Cc3c[nH]c4ccccc34)NS(=O)(=O)c3ccc(C)cc3)n2)cc1` [Compound 165, (S)-Methyl 4-(2-(3-(1H-indol-3-yl)-2-(4-methylphenylsulfonamido)propanamido)thiazol-4-yl)benzoate], the “Cell Viability (% inhibition) (A549)” value was 78.22 ± 0.97%.
With `O=C(OCc1ccccc1)[C@H](Cc1c[nH]c2ccccc12)NS(=O)(=O)c1ccc(C(F)(F)F)nc1` [Compound 166, (S)-Benzyl 3-(1H-indol-3-yl)-2-(6-(trifluoromethyl)pyridine-3-sulfonamido)propanoate] the “Cell Viability (% inhibition) (A549)” value was 97.48 ± 1%.
With `Cc1ccc(S(=O)(=O)N[C@@H](CCC(=O)Nc2ccc([N+](=O)[O-])cc2)C(=O)Nc2ccc(N3CCOCC3)cc2)cc1` [Compound 167, (S)-2-(4-Methylphenylsulfonamido)-N^1-(morpholinophenyl)-N^5-(4-nitrophenyl)pentanediamide] the “Cell Viability (% inhibition) (A549)” value was 85.33 ± 1.28%.
With `Cc1ccc(S(=O)(=O)N[C@@H](CCCCNC(=O)OCc2ccccc2)C(=O)Nc2ccc(N3CCOCC3)cc2)cc1` [Compound 168, (S)-Benzyl 5-(4-methylphenylsulfonamido)-6-(4-morpholinophenylamino)-6-oxohexylcarbamate] the “Cell Viability (% inhibition) (A549)” value was 84.11 ± 1.25%.
In the case of `Cc1ccc(S(=O)(=O)N[C@@H](CCCCN)C(=O)Nc2ccc(N3CCOCC3)cc2)cc1` [Compound 169, (S)-6-Amino-2-(4-methylphenylsulfonamido)-N-(4-morpholinophenyl)hexanamide], the “Cell Viability (% inhibition) (A549)” value is reported as 3.97 ± ? .91%.
`COc1cc(OC)cc(C(=O)NCCCC[C@H](NS(=O)(=O)c2ccc(C)cc2)C(=O)Nc2ccc(N3CCOCC3)cc2)c1` [Compound 170, (S)-3,5-Dimethoxy-N-(5-(4-methylphenylsulfonamido)-6-(4-morpholinophenylamino)-6-oxohexyl)benzamide] was tested, and the “Cell Viability (% inhibition) (A549)” value was 31.41 ± 4.96%.
For `COc1ccc(CNC(=O)CC[C@H](NS(=O)(=O)c2ccc(C)cc2)C(=O)Nc2ccc(N3CCOCC3)cc2)cc1` [Compound 171, (S)—N^5-(4-Methoxybenzyl)-2-(4-methylphenylsulfonamido)-N^1-(4-morpholinophenyl)pentanediamide], the “Cell Viability (% inhibition) (A549)” value was 40.19 ± 4.29%.
`Cc1ccc(S(=O)(=O)N[C@@H](CCC(=O)Nc2ccccc2)C(=O)Nc2ccc(N3CCOCC3)cc2)cc1` [Compound 172, (S)-2-(4-Methylphenylsulfonamido)-N^1-(4-morpholinophenyl)-N^5-phenylpentanediamide] was tested, and the “Cell Viability (% inhibition) (A549)” value was −2.14 ± ? .1%.
With `Cc1ccc(S(=O)(=O)N[C@@H](CCC(=O)N2CCOCC2)C(=O)Nc2ccc(N3CCOCC3)cc2)cc1` [Compound 173, (S)-2-(4-Methylphenylsulfonamido)-5-morpholino-N-(4-morpholinophenyl)-5-oxopentanamide] the “Cell Viability (% inhibition) (A549)” value was 0.1 ± 5.51%.
In the case of `Cc1ccc(S(=O)(=O)N[C@@H](CCC(=O)Nc2ccc(F)cc2)C(=O)Nc2ccc(N3CCOCC3)cc2)cc1` [Compound 174, (S)—N^5-(4-fluorophenyl)-2-(4-methylphenylsulfonamido)-N^1-(4-morpholinophenyl)pentanediamide], the “Cell Viability (% inhibition) (A549)” value is reported as 10.8 ± 2.26%.
For `Cc1ccc(S(=O)(=O)N[C@@H](CCC(=O)Nc2ccc(C(C)(C)C)cc2)C(=O)Nc2ccc(N3CCOCC3)cc2)cc1` [Compound 175, (S)—N^5-(4-tert-butylphenyl)-2-(4-methylphenylsulfonamido)-N^1-(4-morpholinophenyl)pentanediamide], the “Cell Viability (% inhibition) (A549)” value was 28.4 ± 4.82%.
`Cc1ccc(S(=O)(=O)N[C@@H](CC(=O)Nc2ccc([N+](=O)[O-])cc2)C(=O)Nc2ccc(N3CCOCC3)cc2)cc1` [Compound 177, (S)-2-(4-Methylphenylsulfonamido)-N^1-(4-morpholinophenyl)-N^4-(4-nitrophenyl)succinamide] was tested, and the “Cell Viability (% inhibition) (A549)” value was 53.91 ± 0.92%.
In the case of `O=C([C@H](Cc1c[nH]c2ccccc12)NS(=O)(=O)c1ccc(Br)cc1)n1ccc(-c2ccccc2)n1` [Compound 185, (S)—N-(3-(1H-indol-3-yl)-1-oxo-1-(3-phenyl-1H-pyrazol-1-yl)propan-2-yl)-4-bromobenzenesulfonamide], the “Cell Viability (% inhibition) (A549)” value is reported as 13.09 ± 18.13%.
`CCCCCCCCCCCC(=O)NNC(=O)[C@H](Cc1c[nH]c2ccccc12)NS(=O)(=O)c1ccc(Br)cc1` [Compound 194, (S)-4-Bromo-N-(1-(2-dodecanoylhydrazinyl)-3-(1H-indol-3-yl)-1-oxopropan-2-yl)benzenesulfonamide] was tested, and the “Cell Viability (% inhibition) (A549)” value was 86.99 ± 0.6%.
`Cc1ccc(S(=O)(=O)N[C@@H](Cc2c[nH]c3ccccc23)C(=O)NC23CC4CC(CC(C4)C2)C3)cc1` [Compound 204, (S)—N-((3R,5R,7R)-adamantan-1-yl)-3-(1H-indol-3-yl)-2-(4-methylphenylsulfonamido)propanamide] was tested, and the “Cell Viability (% inhibition) (A549)” value was 78.9 ± 2.62%.
With `COc1ccc(CCNC(=O)[C@H](Cc2c[nH]c3ccccc23)NS(=O)(=O)c2ccc(C)cc2)cc1` [Compound 205, (S)-3-(1H-indol-3-yl)-N-(4-methoxyphenethyl)-2-(4-methylphenylsulfonamido)propanamide] the “Cell Viability (% inhibition) (A549)” value was 65.64 ± 5.37%.
